# Target: T1, human IL-17A (Homo sapiens, UniProt Q16552)
# T1 construct: purchased R&D Systems 7955-IL/CF
# T1 sequence (Q16552 24-155): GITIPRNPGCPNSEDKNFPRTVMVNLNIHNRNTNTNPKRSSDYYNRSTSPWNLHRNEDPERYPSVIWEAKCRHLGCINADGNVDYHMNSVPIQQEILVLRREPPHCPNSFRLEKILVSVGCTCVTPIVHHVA
# Experiment: IL-17A AlphaLISA competition assay (block of IL-17A binding to its receptor IL-17RA)
# Details: mean IC50 (n≥2), block of IL-17A binding to IL-17RA
# Summary of the method: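 Bead-based AlphaLISA competition in PBS with 0.05% Tween-20 and 0.1% BSA: compound first meets human IL-17A (7.5 nM stock) for 30 min, then IL-17RA/Fc (5 nM stock) for 90 min, all at room temperature, before acceptor/donor bead capture. IC50 fitted 4-parameter, DMSO and 4 μM reference inhibitor as controls; at least duplicate.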
row,IC50 [nM],Molecule
1,198,"COC[C@H](c1ccnc(NC(=O)[C@@H](NC(=O)c2ccnn2C(C)C)C2CC(F)(F)C2)c1)N1C[C@@H](C(F)(F)F)NC1=O [Example 262, N—((S)-1-(3,3-difluorocyclobutyl)-2-((4-((S)-2-methoxy-1-((S)-2-oxo-4-(trifluoromethyl)imidazolidin-1-yl)ethyl)pyridin-2-yl)amino)-2-oxoethyl)-1-isopropyl-1H-pyrazole-5-carboxamide]"
2,67,"CC(c1ccnc(NC(=O)[C@@H](NC(=O)c2ccnn2C)C2CCC(F)(F)CC2)c1)N1C[C@@H](C(F)(F)F)NC1=O (single isomer, unassigned) [Example 171, N-((1S)-1-(4,4-difluorocyclohexyl)-2-oxo-2-((4-((R or S)-1-((S)-2-oxo-4-(trifluoromethyl)imidazolidin-1-yl)ethyl)pyridin-2-yl)amino)ethyl)-1-methyl-1H-pyrazole-5-carboxamide]"
3,73,"COC[C@H](c1ccnc(NC(=O)[C@@H](NC(=O)c2ccnn2C)C2CCC(F)(F)CC2)c1)N1CC(F)(F)CNC1=O [Example 180, N-((S)-2-((4-((S)-1-(5,5-difluoro-2-oxotetrahydropyrimidin-1(2H)-yl)-2-methoxyethyl)pyridin-2-yl)amino)-1-(4,4-difluorocyclohexyl)-2-oxoethyl)-1-methyl-1H-pyrazole-5-carboxamide]"
4,187,"CCc1nocc1C(=O)N[C@H](C(=O)Nc1cc(C(C)(C)N2C[C@@H](C(F)(F)F)NC2=O)ccn1)C1CCC(F)(F)CC1 [Example 173, N-((S)-1-(4,4-difluorocyclohexyl)-2-oxo-2-((4-(2-((S)-2-oxo-4-(trifluoromethyl)imidazolidin-1-yl)propan-2-yl)pyridin-2-yl)amino)ethyl)-3-ethylisoxazole-4-carboxamide]"
5,122,"CCc1nocc1C(=O)N[C@H](C(=O)Nc1cc(CN2C[C@@H](C(F)(F)F)NC2=O)ccn1)C1CCC(F)(F)CC1 [Example 13, N-((S)-1-(4,4-difluorocyclohexyl)-2-oxo-2-((4-(((S)-2-oxo-4-(trifluoromethyl)imidazolidin-1-yl)methyl)pyridin-2-yl)amino)ethyl)-3-ethylisoxazole-4-carboxamide]"
6,5600,"Cn1nccc1C(=O)N[C@H](C(=O)Nc1cc(CNC(=O)CCC(F)(F)F)ccn1)C(C1CC1)C1CC1 [Example 32, (S)—N-(1,1-dicyclopropyl-3-oxo-3-((4-((4,4,4-trifluorobutanamido)-methyl)pyridin-2-yl)amino)propan-2-yl)-1-methyl-1H-pyrazole-5-carboxamide]"
7,203,"COCC(NC(=O)CCC(F)(F)F)c1ccnc(NC(=O)[C@@H](NC(=O)c2ccnn2CC2CC2)C2CCC(F)(F)CC2)c1 (single isomer, unassigned) [Example 142]"
8,93,"COCC(c1ccnc(NC(=O)[C@@H](NC(=O)c2ccnn2C)C2CCC(C)CC2)c1)N1C[C@@H](C(F)(F)F)NC1=O (stereo partly drawn) [Example 76, N-((1S)-2-((4-(2-methoxy-1-((S)-2-oxo-4-(trifluoro-methyl)imidazolidin-1-yl)ethyl)pyridin-2-yl)amino)-1-((1r,4S)-4-methylcyclohexyl)-2-oxoethyl)-1-methyl-1H-pyrazole-5-carboxamide]"
9,49,"COCC(c1ccnc(NC(=O)C(NC(=O)C(F)(F)c2cccc(Cl)c2)C2CCC(C)CC2)c1)N1CC(C(F)(F)F)NC1=O (single isomer, unassigned) [Example 249]"
10,4860,"COCC(c1ccnc(NC(=O)[C@@H](NC(=O)c2nc(Br)ccc2C)[C@H]2CC[C@H](C)CC2)c1)N1C[C@@H](C(F)(F)F)NC1=O (single isomer, unassigned) [Example 94]"

row,Molecule,IC50 [nM]
1,1-isopropyl-N-((1S)-2-((4-((S)-2-methoxy-1-((S)-2-oxo-4-(trifluoromethyl)imidazolidin-1-yl)ethyl)pyridin-2-yl)amino)-2-oxo-1-(4-(trifluoromethyl)cyclohexyl)ethyl)-1H-pyrazole-5-carboxamide [Example 303],46

# Reference: patent US20260200928A1, “THERAPEUTIC COMPOUNDS” (Sanofi, priority 2022, published 2026)
